Key:
[1] = test system: SW620, HCT-116, Colo205, A549, Calu-6 or HL-60 tumour xenografts; conditions: cited from earlier work
human FLT4 = molecular target: T1, human FLT4 (Homo sapiens, UniProt P35916); assay: FLT4 kinase assay (DELFIA enzyme inhibition); type: biochemical; conditions: read-out: FLT4 IC50
T1 construct: a construct expressing the human FLT4 (789-1207) with an amino terminal GST tag; host or cells: Sf9 insect cells (baculovirus)
Method in brief: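 Read-out is DELFIA: biotinylated MET Tyr1253-derived peptide captured on Neutravidin, phosphotyrosine detected by Eu-antibody time-resolved fluorescence. Enzyme is Sf9-expressed GST-FLT4 (789-1207), reacting 30 min at room temperature before EDTA stop. IC50 derived from plotted % inhibition.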

human FLT3 = molecular target: T2, human FLT3 (Homo sapiens, UniProt P36888); assay: FLT3 kinase assay (DELFIA enzyme inhibition); type: biochemical
T2 construct: a construct expressing the human FLT3 (564-993) with an amino terminal GST tag; host or cells: Sf9 insect cells (baculovirus)
T2 sequence (P36888 564-993): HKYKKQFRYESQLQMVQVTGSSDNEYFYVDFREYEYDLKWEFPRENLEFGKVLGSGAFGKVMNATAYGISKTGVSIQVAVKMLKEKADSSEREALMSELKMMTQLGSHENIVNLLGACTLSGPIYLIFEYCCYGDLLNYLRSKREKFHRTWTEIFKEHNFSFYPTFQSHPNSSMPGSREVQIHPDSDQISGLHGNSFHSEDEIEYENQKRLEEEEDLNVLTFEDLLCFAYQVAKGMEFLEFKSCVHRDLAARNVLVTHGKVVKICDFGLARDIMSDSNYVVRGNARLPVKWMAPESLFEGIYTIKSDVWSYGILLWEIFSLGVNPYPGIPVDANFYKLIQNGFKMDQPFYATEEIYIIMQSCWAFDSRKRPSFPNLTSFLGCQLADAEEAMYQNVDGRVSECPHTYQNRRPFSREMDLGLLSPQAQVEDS
Method in brief: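 GST-tagged human FLT3 (564-993), expressed in sf9 cells, phosphorylated a biotinylated Gastrin Precursor (Tyr 87)-derived peptide for 30 min at room temperature before EDTA stop. The captured peptide was detected by Eu-labelled anti-phosphotyrosine DELFIA time-resolved fluorescence. IC50 was derived from % inhibition curves.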

human Aurora A = molecular target: T3, human Aurora A (Homo sapiens, UniProt O14965); assay: Aurora A kinase assay (DELFIA enzyme inhibition); type: biochemical; conditions: read-out: Aurora A IC50
T3 construct: Histidine tag (N); host or cells: Sf9 insect cells (baculovirus)
T3 sequence (O14965 1-403): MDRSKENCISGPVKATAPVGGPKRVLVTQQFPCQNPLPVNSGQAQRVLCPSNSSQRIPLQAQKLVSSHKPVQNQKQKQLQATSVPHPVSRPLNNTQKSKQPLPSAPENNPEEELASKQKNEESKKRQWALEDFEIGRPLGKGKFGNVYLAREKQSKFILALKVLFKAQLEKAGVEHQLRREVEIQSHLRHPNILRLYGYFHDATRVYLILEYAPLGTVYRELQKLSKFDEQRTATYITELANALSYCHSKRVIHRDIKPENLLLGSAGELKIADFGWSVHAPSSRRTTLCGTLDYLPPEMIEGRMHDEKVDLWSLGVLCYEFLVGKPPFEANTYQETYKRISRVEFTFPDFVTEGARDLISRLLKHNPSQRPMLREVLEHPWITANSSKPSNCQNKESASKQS
Method in brief: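 DELFIA read-out (time-resolved Eu fluorescence, 620 nm emission) after Neutravidin capture of biotinylated peptide substrate and antibody detection. Reaction: Ni-agarose-purified Aurora A, 30 min at room temperature, stopped with 100 mM EDTA.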

HCT116 cells = assay: Anti-proliferative activity, Alamar Blue assay, HCT116; type: cell-based; conditions: Homo sapiens, HCT-116, 72 hours, read-out: cell proliferation IC50
Method: (§1) The anti-proliferative activities of compounds of the invention are determined by measuring the ability of the compounds to inhibition of cell growth in a number of cell lines. Inhibition of cell growth is measured using the Alamar Blue assay (Nociari et al., Journal of Immunological Methods (1998) 213, 157-167). The method is based on the ability of viable cells to reduce resazurin to its fluorescent product resorufin. For each proliferation assay cells are plated onto 96 well plates and allowed to recover for 16 hours prior to the addition of inhibitor compounds for a further 72 hours. At the end of the incubation period 10% (v/v) Alamar Blue is added and incubated for a further 6 hours prior to determination of fluorescent product at Excitation 535 nm and Emission 590 nm. In the case of the non-proliferating cell assay cells are maintained at confluence for 96 hour prior to the addition of inhibitor compounds for a further 72 hours. The number of viable cells is determined by Alamar Blue assay as before. All cell lines are obtained from ECACC (European Collection of cell Cultures).

[2] = test system: A549 human lung carcinoma cells; assay: Anti-proliferative activity, Alamar Blue assay, A549; type: cell-based; conditions: A549, 72 h, read-out: cell growth IC50
Method: as §1

[3] = test system: treatment-refractory primary Acute Myelogenous Leukemia (AML) cells; conditions: treatment-refractory cells from patients; cited from earlier work

T1 sequence (P35916 789-1207): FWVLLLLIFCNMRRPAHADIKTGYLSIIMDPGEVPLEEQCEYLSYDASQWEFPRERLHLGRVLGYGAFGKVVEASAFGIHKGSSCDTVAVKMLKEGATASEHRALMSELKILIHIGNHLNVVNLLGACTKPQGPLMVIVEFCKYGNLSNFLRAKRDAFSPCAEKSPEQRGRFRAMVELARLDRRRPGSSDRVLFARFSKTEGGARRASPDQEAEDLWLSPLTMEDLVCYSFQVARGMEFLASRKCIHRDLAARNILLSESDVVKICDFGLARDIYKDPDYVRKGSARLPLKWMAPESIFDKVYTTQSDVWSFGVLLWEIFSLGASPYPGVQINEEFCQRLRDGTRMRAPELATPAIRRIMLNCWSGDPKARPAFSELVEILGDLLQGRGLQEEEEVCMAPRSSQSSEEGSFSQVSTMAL

Compound	IC50 (human FLT4) [µM]	IC50 (human FLT3) [µM]	IC50 (human Aurora A) [µM]	IC50 (HCT116 cells) [µM]	IC50 [2] [µM]	complete tumour regression (animals) ([1]; HL-60 xenograft)	inhibition of tumour growth ([1]; dosed over 48 h via sub-cutaneous mini-pump infusion, all xenograft models)	killing of primary AML cells [3]
CCN(CCCOc1ccc2c(Nc3cc(CC(=O)Nc4cccc(F)c4)n[nH]3)ncnc2c1)CCOP(=O)(O)O [AZD1152]	–	–	–	–	–	8 of 11	55% to 100	–
NC(=O)c1nc(-c2c(F)cccc2F)oc1-c1ccc(N2CCNCC2)cc1 [Example G-3, 2-(2,6-difluorophenyl)-5-(4-(piperazin-1-yl)phenyl)oxazole-4-carboxamide]	< 10	< 10	< 10	< 10	< 10	–	–	–
NC(=O)c1nc(-c2c(F)cccc2Cl)oc1-c1ccc(N2CCNCC2)cc1 [Example G-5, 2-(2-chloro-6-fluorophenyl)-5-(4-(piperazin-1-yl)phenyl)oxazole-4-carboxamide]	< 10	< 10	< 10	< 10	< 10	–	–	–
NC(=O)c1nc(-c2cccc3[nH]ccc23)oc1-c1ccc(N2CCNCC2)cc1 [Example M-12, 2-(1H-indol-4-yl)-5-(4-(piperazin-1-yl)phenyl)oxazole-4-carboxamide]	< 10	< 10	< 10	< 10	< 10	–	–	–
NC(=O)c1nc(-c2cccc3[nH]ncc23)oc1-c1ccc(N2CCNCC2)cc1 [Example M-17, 2-(1H-indazol-4-yl)-5-(4-(piperazin-1-yl)phenyl)oxazole-4-carboxamide]	< 10	< 10	< 10	< 10	< 10	–	–	–
Cc1cc(Nc2cc(N3CCN(C)CC3)nc(Sc3ccc(NC(=O)C4CC4)cc3)n2)n[nH]1 [VX-680]	–	–	–	–	–	–	–	potently killed

More lines, main results first:

IC50 (human FLT4) [µM]	IC50 (human FLT3) [µM]	IC50 (human Aurora A) [µM]	IC50 (HCT116 cells) [µM]	IC50 [2] [µM]	Compound	complete tumour regression (animals) ([1]; HL-60 xenograft)	inhibition of tumour growth ([1]; dosed over 48 h via sub-cutaneous mini-pump infusion, all xenograft models)	killing of primary AML cells [3]
< 10	< 10	< 10	< 10	< 10	CS(=O)(=O)c1ccc(Nc2oc(-c3c(F)cccc3F)nc2C(N)=O)cc1 [Example Q-3, 2-(2,6-difluorophenyl)-5-(4-(methylsulfonyl)phenylamino)oxazole-4-carboxamide]	–	–	–
< 10	< 10	< 10	< 10	< 10	NC(=O)c1nc(-c2c(F)cccc2F)oc1Nc1ccc(N2CCNCC2)cc1 [Example Q-11, 2-(2,6-difluorophenyl)-5-(4-(piperazin-1-yl)phenylamino)oxazole-4-carboxamide]	–	–	–
< 10	< 10	< 10	< 10	< 10	CN1CCN(C(=O)c2ccc(Nc3oc(-c4c(F)cccc4F)nc3C(N)=O)cc2)CC1 [Example Q-14, 2-(2,6-difluorophenyl)-5-(4-(4-methylpiperazine-1-carbonyl)phenylamino) oxazole-4-carboxamide]	–	–	–
< 10	< 10	< 10	< 10	< 10	NC(=O)c1nc(-c2c(F)cccc2Cl)oc1Nc1ccc(N2CCNCC2)cc1 [Example Q-36, 2-(2-chloro-6-fluorophenyl)-5-(4-(piperazin-1-yl)phenylamino)oxazole-4-carboxamide]	–	–	–
< 10	< 10	< 10	< 10	< 10	CN1CCN(C(=O)c2ccc(Nc3oc(-c4c(F)cccc4Cl)nc3C(N)=O)cc2)CC1 [Example Q-57]	–	–	–
< 10	< 10	< 10	< 10	< 10	NC(=O)c1nc(Nc2c(F)cccc2F)oc1-c1ccc(N2CCNCC2)cc1 [Example R-13, 2-(2,6-difluorophenylamino)-5-(4-(piperazin-1-yl)phenyl)oxazole-4-carboxamide]	–	–	–
